{"source": "patent US5635391A", "about": "“Isolated DNA encoding a nitrilase polypeptide, hosts containing, and expression thereof optionally assisted by a E. coli GroE chaperone polypeptide” (priority 1992, dated 1997)", "key": {"[1]": {"target": "T1, purified nitrilase (Comamonas testosteroni, UniProt Q59329)", "T1 construct": "about 280 kDa oligomer of about 38 kDa subunits", "T1 sequence (Q59329 entry or part of it)": "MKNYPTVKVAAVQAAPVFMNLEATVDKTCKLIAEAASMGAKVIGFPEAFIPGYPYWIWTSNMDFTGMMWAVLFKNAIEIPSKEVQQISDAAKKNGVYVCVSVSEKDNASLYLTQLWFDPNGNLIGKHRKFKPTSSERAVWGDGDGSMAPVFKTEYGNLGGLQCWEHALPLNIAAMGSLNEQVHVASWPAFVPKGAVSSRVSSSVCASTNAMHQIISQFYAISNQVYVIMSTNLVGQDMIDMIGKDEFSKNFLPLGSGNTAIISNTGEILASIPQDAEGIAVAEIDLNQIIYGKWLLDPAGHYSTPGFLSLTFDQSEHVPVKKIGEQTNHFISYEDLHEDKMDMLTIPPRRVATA", "experiment": "Relative activity of the purified nitrilase on various nitriles", "assay_type": "biochemical, Comamonas testosteroni sp.", "conditions": "acetate buffer 10 mM, pH 4; substrate 10 mM; 25° C.", "method": "The activities of the purified nitrilase were measured on adiponitrile, 5-cyanovaleramide, 5-cyanovaleric acid, benzonitrile, propionitrile and acrylonitrile.\nCOMMON CONDITIONS: acetate buffer=10 mM, pH 4; substrate=10 mM; volume=3 ml; T=25° C.; reaction time=1 or 3 h; proteins: from 5 to 30 μg/ml."}, "[2]": {"test_system": "P. putida G2081 pXL2169", "experiment": "Nitrilase activity of recombinant strain P. putida G2081 pXL2169", "assay_type": "cell-based, Pseudomonas putida", "conditions": "no IPTG; whole cells; DW 0.25 g/l; 1 ml; pH 7.0; substrate 50 mM", "method": "(§1) The activities of these strains, induced or non-induced, are measured on adiponitrile and 5-cyanovalerate at different pH values and are compared with the negative control strains: E. coli TG1, E. coli TG1 (pXL2035) and Pseudomonas putida G2081.\n(§2) The cultures are carried out under the conditions described in Table 4. During the exponential growth phase, one of the two cultures of the recombinant strain is induced with 1 mM IPTG; after 2 h at 37° C., this culture is treated.\n(§3) The conditions of the specific activity measurements and the results are collated in Table 5.\n(§4) COMMON CONDITIONS: [substrate]=50 mM; T=25° C.; buffer 50 mM; kinetics over 90 min for 1 to 3 and over 120 min for 4 to 8.\n(§5) ABBREVIATIONS: W=whole cells; S=sonicated cells; Ua=μmols of cyanovalerate produced/h; Ub=μmols of adipate produced/h; AdN=adiponitrile; CVA=5-cyanovalerate. DW=dry weight."}, "[3]": {"test_system": "E. coli TG1 pXL2158", "experiment": "Nitrilase activity of recombinant strain E. coli TG1 pXL2158", "assay_type": "cell-based", "conditions": "DW 1.25 g/l; 1 ml; pH 7.0; substrate 50 mM", "method": "as §1, §2, §3, §4, §5"}, "[4]": {"test_system": "E. coli TG1 pXL2087", "experiment": "Nitrilase activity of recombinant strain E. coli TG1 pXL2087", "assay_type": "cell-based", "conditions": "substrate 50 mM", "method": "as §1, §2, §3, §4, §5"}, "[5]": {"test_system": "E. coli TG1", "experiment": "Nitrilase activity of control strain E. coli TG1", "assay_type": "cell-based", "conditions": "no IPTG, whole cells, DW 15.5 g/l, 1 ml, substrate 50 mM, 25° C.", "method": "as §1, §2, §3, §4, §5"}, "[6]": {"test_system": "E. coli TG1 pXL2035,2158", "experiment": "Nitrilase activity of recombinant strain E. coli TG1 pXL2035,2158", "assay_type": "cell-based", "conditions": "DW 0.2 g/l; 1 ml; pH 7.0; substrate 50 mM", "method": "as §1, §2, §3, §4, §5"}, "[7]": {"test_system": "E. coli PXL2158 + 2035", "experiment": "Hydrolysis of methiononitrile with free and resin-fixed cells of E. coli PXL2158 + 2035", "assay_type": "cell-based", "conditions": "test 15; free cells; dry cells 1.3 g/l; MetCN 50 mM; pH7; 28° C.", "method": "The E. coli PXL 2158+2035 free cells are fixed on resin according to the technique described in U.S. Pat. No. 4,732,851, so as to form a biocatalyst.\nCONDITIONS: volume=5 ml; potassium phosphate buffer=100 mM pH7, [MetCN]=50 mM; T 28° C.; kinetics over 3 h; DB=dry biocatalyst; DC=dry cells.\nTwo methiononitrile batches were tested: purified methiononitrile in the form of a sulfate and free methiononitrile.\nCONDITIONS: volume=5 ml; potassium phosphate buffer=100 mM pH7; T 28° C.; kinetics over 3 h; *=percent with respect to the formed acid; DB=dry biocatalyst; DC=dry cells."}, "[8]": {"test_system": "E. coli PXL2158", "experiment": "Hydrolysis of methiononitrile with E. coli PXL2158 in suspension", "assay_type": "cell-based", "conditions": "test 9; whole cells; MetCN 100 mM; DW 17.2 g/l; pH 7; 28° C.", "method": "(§6) The recombinant strains used in this example are those from E. coli TG1, integrating the plasmids PXL2158 and PXL2035 described above and containing the nitrilase gene of Comamonas testosteroni.\n(§7) Tests 9 to 13 show the nitrilase activity at 28° C., of these recombinant strains with respect to the methiononitrile, according to various operating conditions. The strain culture is performed as explained in example 6.1.The following Table 7 summarizes the conditions and the results of tests 9 to 13."}, "[9]": {"test_system": "E. coli PXL2158 + 2035", "experiment": "Hydrolysis of methiononitrile with E. coli PXL2158 + 2035 in suspension", "assay_type": "cell-based", "conditions": "for Initial specific activity: whole cells, DW 1.4 g/l, pH 7, 28° C.", "method": "as §6, §7"}}, "data": [{"compound": "N#CCCCCC(N)=O", "note": "[5-Cyanovaleramide, 5-cyanovaleramide]", "values": [{"measurement": "RELATIVE ACTIVITY", "setting": "[1]", "value": 28, "unit": "%"}]}, {"compound": "N#CCCCCC(=O)O", "note": "[5-Cyanovalerate, 5-cyanovalerate]", "values": [{"measurement": "Activity Ua", "setting": "[2]", "value": "130 μmols of cyanovalerate produce"}, {"measurement": "Activity Ub", "setting": "[3]", "value": "8.3 μmols of adipate produced/h"}, {"measurement": "Activity Ub", "setting": "[4]; +IPTG, sonicated cells, DW 1.4 g/l, 1 ml, pH 5.2", "value": "25 μmols of adipate produced/h"}, {"measurement": "Activity Ub", "setting": "[4]; +IPTG, sonicated cells, DW 1.4 g/l, 2 ml, pH 7.0", "value": "8 μmols of adipate produced/h"}, {"measurement": "Activity Ub", "setting": "[4]; +IPTG, whole cells, DW 1.4 g/l, 1 ml, pH 4.0", "value": "28 μmols of adipate produced/h"}, {"measurement": "Activity Ub", "setting": "[4]; +IPTG, whole cells, DW 1.4 g/l, 1 ml, pH 5.2", "value": "27 μmols of adipate produced/h"}, {"measurement": "Activity Ub", "setting": "[4]; +IPTG, whole cells, DW 1.4 g/l, 2 ml, pH 7.0", "value": "8 μmols of adipate produced/h"}, {"measurement": "Activity Ub", "setting": "[4]; no IPTG, sonicated cells, DW 1.0 g/l, 1 ml, pH 5.2", "value": "13 μmols of adipate produced/h"}, {"measurement": "Activity Ub", "setting": "[4]; no IPTG, sonicated cells, DW 1.0 g/l, 1 ml, pH 7.0", "value": "3.2 μmols of adipate produced/h"}, {"measurement": "Activity Ub", "setting": "[4]; no IPTG, whole cells, DW 1.2 g/l, 2 ml, pH 4.0", "value": "10 μmols of adipate produced/h"}, {"measurement": "Activity Ub", "setting": "[4]; no IPTG, whole cells, DW 1.2 g/l, 2 ml, pH 5.2", "value": "14 μmols of adipate produced/h"}, {"measurement": "Activity Ub", "setting": "[4]; no IPTG, whole cells, DW 1.2 g/l, 2 ml, pH 7.0", "value": "3.4 μmols of adipate produced/h"}, {"measurement": "Activity Ub", "setting": "[5]; pH 5.2", "value": "0 μmols of adipate produced/h"}, {"measurement": "Activity Ub", "setting": "[5]; pH 7.0", "value": "0 μmols of adipate produced/h"}, {"measurement": "Activity Ub", "setting": "[6]", "value": "70 μmols of adipate produced/h"}]}, {"compound": "C=CC#N", "note": "[Acrylonitrile, acrylonitrile]", "values": [{"measurement": "RELATIVE ACTIVITY", "setting": "[1]", "value": 23, "unit": "%"}]}, {"compound": "N#Cc1ccccc1", "note": "[Benzonitrile, benzonitrile]", "values": [{"measurement": "RELATIVE ACTIVITY", "setting": "[1]", "value": 4, "unit": "%"}]}, {"compound": "CSCCC(N)C#N", "note": "(stereo not drawn) [MetCN, methiononitrile]", "values": [{"measurement": "Specific Initial Activity", "setting": "[7]", "value": 63, "unit": "μmol/hx mg DC"}, {"measurement": "Initial specific activity", "setting": "[8]", "value": "8 μmol/h x mg of DW"}, {"measurement": "nitrilase activity", "setting": "[9]; comment on Table 7", "value": "about 80 μmol of MEtCN/hxmg of DW"}, {"measurement": "Initial specific activity", "setting": "[9]; test 10, MetCN 50 mM", "value": "77 μmol/h x mg of DW"}, {"measurement": "Initial specific activity", "setting": "[9]; test 11, MetCN 50 mM", "value": "62 μmol/h x mg of DW"}, {"measurement": "Initial specific activity", "setting": "[9]; test 12, MetCN 100 mM", "value": "73 μmol/h x mg of DW"}, {"measurement": "Initial specific activity", "setting": "[9]; test 13, MetCN 200 mM", "value": "61 μmol/h x mg of DW"}, {"measurement": "activity relative to E. coli PXL2158 alone", "setting": "[9]; tests 9 and 10", "value": "~10", "unit": "times"}]}, {"compound": "CCC#N", "note": "[Propionitrile, propionitrile]", "values": [{"measurement": "RELATIVE ACTIVITY", "setting": "[1]", "value": 6, "unit": "%"}]}]}
